Data from the NIST ThermoML archive (doi:10.1007/s10765-007-0223-x).

Assay: xn = mol fraction of the nth substance listed
Conditions: 101 kPa, Liquid; for speed of sound: Single path-length method

COC(C)(C)C [2-methoxy-2-methylpropane] + Cc1ccccc1
Conditions	mass density, 288.15 K [kg/m3]	mass density, 290.65 K [kg/m3]	mass density, 293.15 K [kg/m3]	mass density, 295.65 K [kg/m3]	speed of sound, 288.15 K [m/s]	speed of sound, 290.65 K [m/s]	speed of sound, 293.15 K [m/s]	speed of sound, 295.65 K [m/s]
x1 = 0.053	864.558	862.236	859.905	857.569	1332.9	1321.9	1310.9	1299.9
x1 = 0.116	856.488	854.153	851.805	849.458	1315.9	1304.8	1293.8	1282.8
x1 = 0.199	845.884	843.533	841.167	838.799	1295.2	1284.2	1273.2	1262.2
x1 = 0.301	832.848	830.472	828.083	825.688	1268.1	1257.4	1246.4	1235.4
x1 = 0.371	824.068	821.675	819.27	816.857	1249.5	1238.5	1227.5	1216.5
x1 = 0.463	812.346	809.929	807.497	805.058	1225.8	1215	1203.9	1193
x1 = 0.61	793.998	791.542	789.068	–	1186.3	1175.6	1164.7	1153.6
x1 = 0.688	784.329	781.848	779.352	–	1166	1155	1143.9	1132.8
x1 = 0.797	770.803	768.289	765.757	–	1137.3	1126.6	1115.7	1104.9
x1 = 0.902	757.81	755.262	752.693	–	1108.5	1098.2	1087.4	1076.7
x1 = 0.943	752.561	750	747.415	–	1097.5	1086.8	1075.9	1064.8
x1 = 1	744.861	742.259	739.654	–	1083.4	1071.6	1060	1048.5
